Results reported in PubChem BioAssay AID179 (DTP/NCI, 2004).
Calls of active or inactive are those of the source.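 How the source made its calls: active means compounds giving half or more protection of infected cells from virus-caused growth loss, again on retest; inactive means the rest.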

Test system: CEM cells HIV-1 protection, formazan growth assay
Assay: NCI AIDS Antiviral Assay
Details: for IC50: measured here: growth of uninfected CEM cells
In short: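 Screen of anti-HIV-1 activity in human CEM cells using a formazan-based growth measurement at five drug concentrations. Hits with 50% or greater protection were repeated, and confirmation required reproducible complete protection.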

SMILES: O=C(O)c1cc(/C=C/c2cc(O)ccc2O)ccc1O
- EC50: > 182 µM
- IC50: 15.5 µM

SMILES: CN(C)c1ccc(-c2c3ccccc3nc3ccccc23)cc1
- EC50: > 4.57 µM
- IC50: > 4.57 µM

SMILES: CC(=O)N1CC2(CN(C(C)=O)CC3(C1)OCCO3)OCCO2
- EC50: > 200 µM
- IC50: > 200 µM

SMILES: Cc1ccc(Cc2n[nH]c(=O)[nH]2)cc1
- EC50: > 200 µM
- IC50: > 200 µM

SMILES: O=C1c2cccc([N+](=O)[O-])c2C(=O)c2c1oc1ccc3ccccc3c21
- EC50: > 200 µM
- IC50: > 200 µM

SMILES: CCC(CC)(CO)CNc1cc(Cl)nc(N)n1
- EC50: > 200 µM
- IC50: > 100 µM

SMILES: COC(=O)c1cc(C(=CC(=O)N[C@@H]2CC[C@@]3(C)[C@@H](CC[C@@H]4[C@@H]3CC[C@]3(C)[C@@H]([C@H](C)CCCC(C)C)CC[C@@H]43)C2)c2cc(Cl)c(OC)c(C(=O)OC)c2)cc(Cl)c1OC
- EC50: > 100 µM
- IC50: > 100 µM

SMILES: CCCCCC1=C(c2ccc(OC)c(S(=O)(=O)N(C)C)c2)c2cc(S(=O)(=O)N(C)C)c(OC)cc2S1(=O)=O
- EC50: > 32.4 µM
- IC50: > 32.4 µM

SMILES: COc1c2cc([N+](=O)[O-])cc1CNC(=O)CN1CCOCCOCCN(CCOCCOCC1)CC(=O)NC2
- EC50: > 100 µM
- IC50: > 100 µM

SMILES: NC(=O)CNC(=O)[C@@H]1CC(OCCC(=O)O)CN1C(=O)C1CCCN1C(=O)OCc1ccccc1 (stereo not given in full)
- EC50: > 200 µM
- IC50: > 200 µM

SMILES: COc1cc(C(O)C(O)c2cc(CN3CCOCC3)c(O)c(OC)c2)cc(CN2CCOCC2)c1O (stereo not given)
- EC50: > 200 µM
- IC50: > 200 µM

SMILES: COc1ccc(C[C@H]2COC(=O)[C@@H]2Cc2ccc(Br)cc2)cc1OC
- EC50: > 200 µM
- IC50: 24.5 µM

SMILES: CCCCNC1=C(C(=O)OCC)/C(=N/NC(=O)c2ccccc2O)CO1
- EC50: > 83.2 µM
- IC50: 13.2 µM

SMILES: CC(=O)Nc1ccc(-c2nnc(SCC(=O)Nc3ccccc3Cl)o2)cc1
- EC50: > 46.8 µM
- IC50: > 46.8 µM

SMILES: O=C(ON=C1c2ccccc2C(Br)C(Br)c2ccccc21)c1cc([N+](=O)[O-])cc([N+](=O)[O-])c1 (stereo not given)
- EC50: > 200 µM
- IC50: 0.851 µM

SMILES: CC1(CO)CCCC1NCCNC1CCCC1(C)CO (stereo not given)
- EC50: > 182 µM
- IC50: 107 µM

SMILES: Cc1nc2c(nc1Cl)nc(Oc1ccc(Cl)cc1)c1ccccc12
- EC50: > 28.2 µM
- IC50: > 28.2 µM

SMILES: O=c1sccc2ccccc12
- EC50: > 417 µM
- IC50: > 417 µM

SMILES: CCOC(=O)C(O)(NC(=O)NC(O)(C(=O)OCC)C(F)(F)F)C(F)(F)F (stereo not given)
- EC50: > 200 µM
- IC50: > 200 µM

SMILES: COc1ccccc1C(O)(c1ccccc1)C(O)(c1ccccc1)c1ccccc1OC (stereo not given)
- EC50: > 15.8 µM
- IC50: > 15.8 µM

SMILES: O=C1c2ccccc2C2NCCCN12 (stereo not given)
- outcome: inactive

SMILES: COC(=O)c1nc(N)[nH]c(=O)c1CCCCCc1c(C(=O)OC)nc(N)[nH]c1=O
- EC50: > 17.8 µM
- IC50: > 17.8 µM

SMILES: CN1CC[C@@H](c2ccccc2)[C@@H](O)C1
- outcome: inactive

SMILES: COC(=O)c1cc(C(=O)OC)c(CC(=O)C(=O)Nc2c(C(C)C)cccc2C(C)C)nc1CC(=O)C(=O)Nc1c(C(C)C)cccc1C(C)C
- EC50: > 200 µM
- IC50: > 200 µM

SMILES: CN(C)c1ccc(C=C2C(=O)NC(=O)NC2=O)cc1
- EC50: > 28.2 µM
- IC50: > 28.2 µM

SMILES: COc1cc2c3c(c1)/C(=N\N)CCN3CCC2
- EC50: > 200 µM
- IC50: 115 µM

SMILES: CCC(=O)Oc1ccc2c(=O)c(-c3ccc(OC)cc3)c(CC)oc2c1
- EC50: > 200 µM
- IC50: 25.1 µM

SMILES: COC1=C(C)C(=O)C(=O)c2c(C)ccnc21
- outcome: inactive

SMILES: COc1cc2c(c(OC)c1O)-c1ccc(OC)c(=O)cc1[C@@H](NC(=O)C(F)(F)F)CC2
- EC50: > 2 µM
- IC50: 0.0363 µM

SMILES: N#Cc1cc2cccn2c2c1cnn2-c1ccccc1
- EC50: > 200 µM
- IC50: 43.7 µM

SMILES: CCCCCOCCCCCCCC(=O)OCC1OC(n2cc(C)c(=O)[nH]c2=O)CC1N=[N+]=[N-] (stereo not given)
- outcome: active

SMILES: O=C(NC1CN2CCC1CC2)C(c1ccc(F)cc1)c1ccc(F)cc1 (stereo not given)
- EC50: > 200 µM
- IC50: 5.37 µM

SMILES: O=c1[nH]c(O)c(/C=N/C(=S)N=Nc2c(O)[nH]c3ccccc23)c(=O)[nH]1
- EC50: > 200 µM
- IC50: > 200 µM

SMILES: c1csc(-c2csc(-c3cccs3)c2)c1
- EC50: > 200 µM
- IC50: 40.7 µM

SMILES: CCCCN(CC)C(=O)C(=O)Cc1nc2ccc(C(=O)c3ccccc3)cc2[nH]c1=O
- EC50: > 17.4 µM
- IC50: > 17.4 µM

SMILES: COc1ccccc1NC(=O)C1=C(C)NC(C)=C(C(=O)Nc2ccccc2OC)C1/C=C/c1ccccc1
- outcome: inactive

SMILES: C/C(=N/NC(=O)c1ccccc1Nc1ccccc1C(=O)N/N=C(\C)c1ccc(C)cc1)c1ccc(C)cc1
- EC50: > 20 µM
- IC50: 8.91 µM

SMILES: CC(=O)C=O
- outcome: inactive

SMILES: Cc1c([C@H](C)[C@@H]2NC[C@@H](C)C[C@H]2O)ccc2c1C[C@H]1[C@H]2CC=C2C[C@@H](O)CC[C@@]21C
- EC50: > 1.82 µM
- IC50: > 1.82 µM

SMILES: CN1CC[C@@H](O)[C@@H](CNC23CC4CC(CC(C4)C2)C3)C1
- outcome: inactive

SMILES: CC1(C)CCCC2C1=NOC2O (stereo not given)
- EC50: > 1480 µM
- IC50: > 1480 µM
